{
  "source": "ChEMBL document CHEMBL3217500",
  "about": "“Identification of a novel nanomolar inhibitor of hIcmt via a carboxylate replacement approach” (Medchemcomm, 2012)",
  "note": "Active and inactive are the calls of the source. The calls are words filed in the database; no cut-off is given here.",
  "data": [
    {"molecular_target": "T1, Protein-S-isoprenylcysteine O-methyltransferase (Homo sapiens, UniProt O60725)", "T1 sequence (O60725 whole entry, the tested form may be a part)": "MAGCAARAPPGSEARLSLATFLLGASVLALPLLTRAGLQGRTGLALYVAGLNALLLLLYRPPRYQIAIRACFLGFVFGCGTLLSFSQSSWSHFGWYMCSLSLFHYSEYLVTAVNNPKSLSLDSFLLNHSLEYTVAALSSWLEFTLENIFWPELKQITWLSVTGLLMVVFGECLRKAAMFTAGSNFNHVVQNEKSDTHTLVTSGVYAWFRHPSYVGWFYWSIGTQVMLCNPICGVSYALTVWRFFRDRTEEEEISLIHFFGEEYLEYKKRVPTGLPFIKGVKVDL", "assay": "Inhibition of human isoprenylcysteine carboxyl methyltransferase using [14C]SAM and N-acetyl-S-farnesyl-L-cysteine as substrate at 10 uM after 30 mins by vapor diffusion assay", "units": {"inhibition": "%"}, "values": [
      {"smiles": "CC(C)=CCC/C(C)=C/CC/C(C)=C/CSCCO", "inhibition": 93},
      {"smiles": "CC(C)=CCC/C(C)=C/CC/C(C)=C/CSCCC(=O)O", "inhibition": 28},
      {"smiles": "CC(C)=CCC/C(C)=C/CC/C(C)=C/CSCCCBr", "inhibition": 9},
      {"smiles": "COC(=O)C(C)(C)SC/C=C(\\C)CC/C=C(\\C)CCC=C(C)C", "inhibition": 8},
      {"smiles": "CC(C)=CCC/C(C)=C/CC/C(C)=C/CSCC(=O)NO", "inhibition": 36},
      {"smiles": "CC(C)=CCC/C(C)=C/CC/C(C)=C/CSCC(C)O", "note": "(configuration not stated)", "inhibition": 72},
      {"smiles": "CCOP(=O)(CCSC/C=C(\\C)CC/C=C(\\C)CCC=C(C)C)OCC", "inhibition": 36},
      {"smiles": "CC(=O)OCCSC/C=C(\\C)CC/C=C(\\C)CCC=C(C)C", "inhibition": 27},
      {"smiles": "CC(C)=CCC/C(C)=C/CC/C(C)=C/CSc1ccccc1C(=O)O", "inhibition": 40},
      {"smiles": "CC(C)=CCC/C(C)=C/CC/C(C)=C/CSC(C)(C)C(=O)O", "inhibition": 27},
      {"smiles": "CC(C)=CCC/C(C)=C/CC/C(C)=C/CSCC(O)CO", "note": "(configuration not stated)", "inhibition": 75},
      {"smiles": "CC(=O)CSC/C=C(\\C)CC/C=C(\\C)CCC=C(C)C", "inhibition": 25},
      {"smiles": "COC(=O)CSCC/C=C(\\C)CC/C=C(\\C)CCC=C(C)C", "inhibition": 12},
      {"smiles": "CC(C)=CCC/C(C)=C/CC/C(C)=C/CSCC1OCCO1", "inhibition": 9},
      {"smiles": "COCCSC/C=C(\\C)CC/C=C(\\C)CCC=C(C)C", "inhibition": 0},
      {"smiles": "CC(C)=CCC/C(C)=C/CC/C(C)=C/CC/C(C)=C/CSCCO", "inhibition": 40},
      {"smiles": "CC(C)=CCC/C(C)=C/CC/C(C)=C/CSC(F)(F)CO", "inhibition": 44},
      {"smiles": "COC(=O)CSC/C=C(\\C)CC/C=C(\\C)CC/C=C(\\C)CCC=C(C)C", "inhibition": 12},
      {"smiles": "CC(C)=CCC/C(C)=C/CC/C(C)=C/CSCCCO", "inhibition": 34},
      {"smiles": "COC(=O)CSC/C=C(\\C)CCC=C(C)C", "inhibition": 0},
      {"smiles": "CC(=O)SC/C=C(\\C)CC/C=C(\\C)CCC=C(C)C", "inhibition": 3},
      {"smiles": "CCOP(=O)(CCCSC/C=C(\\C)CC/C=C(\\C)CCC=C(C)C)OCC", "inhibition": 20},
      {"smiles": "CC(C)=CCC/C(C)=C/CC/C(C)=C/CCSCCO", "inhibition": 20},
      {"smiles": "CCOC(=O)NCCSC/C=C(\\C)CC/C=C(\\C)CCC=C(C)C", "inhibition": 10},
      {"smiles": "CC(C)=CCC/C(C)=C/CC/C(C)=C/CSC(C)(C)CO", "inhibition": 32},
      {"smiles": "CCCSC/C=C(\\C)CC/C=C(\\C)CCC=C(C)C", "inhibition": 0},
      {"smiles": "CC(C)=CCC/C(C)=C/CC/C(C)=C/CSCCN", "inhibition": 6},
      {"smiles": "CC(C)=CCC/C(C)=C/CC/C(C)=C/CSCC(N)=O", "inhibition": 47},
      {"smiles": "CC(C)=CCC/C(C)=C/CC/C(C)=C/CSCCC(=O)NO", "inhibition": 22},
      {"smiles": "CC(C)=CCC/C(C)=C/CC/C(C)=C/CSCC(=O)O", "inhibition": 50},
      {"smiles": "COC(=O)CSC/C=C(\\C)CC/C=C(\\C)CCC=C(C)C", "inhibition": 28},
      {"smiles": "CC(C)=CCC/C(C)=C/CC/C(C)=C/CSCCN=[N+]=[N-]", "inhibition": 11},
      {"smiles": "CC(C)=CCC/C(C)=C/CSCCO", "inhibition": 0},
      {"smiles": "CC(C)=CCC/C(C)=C/CC/C(C)=C/CSCC=O", "inhibition": 13},
      {"smiles": "CC(C)=CCC/C(C)=C/CSCC(=O)O", "inhibition": 0},
      {"smiles": "COC(=O)C(F)(F)SC/C=C(\\C)CC/C=C(\\C)CCC=C(C)C", "inhibition": 68},
      {"smiles": "CC(C)=CCC/C(C)=C/CC/C(C)=C/CSC(C)C", "inhibition": 0},
      {"smiles": "CC(C)=CCC/C(C)=C/CC/C(C)=C/CSCCS", "inhibition": 0},
      {"smiles": "COC(=O)CCSC/C=C(\\C)CC/C=C(\\C)CCC=C(C)C", "inhibition": 14}
    ]},
    {"molecular_target": "T1, Protein-S-isoprenylcysteine O-methyltransferase", "assay": "Activity at human isoprenylcysteine carboxyl methyltransferase using [14C]SAM by vapor diffusion assay relative to AFC", "values": [
      {"smiles": "CC(C)=CCC/C(C)=C/CC/C(C)=C/CSCCO", "Activity": "inactive"},
      {"smiles": "CC(C)=CCC/C(C)=C/CC/C(C)=C/CSCCC(=O)O", "Activity": "50%"},
      {"smiles": "CC(C)=CCC/C(C)=C/CC/C(C)=C/CSCCCBr", "Activity": "inactive"},
      {"smiles": "COC(=O)C(C)(C)SC/C=C(\\C)CC/C=C(\\C)CCC=C(C)C", "Activity": "inactive"},
      {"smiles": "CC(C)=CCC/C(C)=C/CC/C(C)=C/CSCC(=O)NO", "Activity": "inactive"},
      {"smiles": "CC(C)=CCC/C(C)=C/CC/C(C)=C/CSCC(C)O", "note": "(configuration not stated)", "Activity": "inactive"},
      {"smiles": "CCOP(=O)(CCSC/C=C(\\C)CC/C=C(\\C)CCC=C(C)C)OCC", "Activity": "inactive"},
      {"smiles": "CC(=O)OCCSC/C=C(\\C)CC/C=C(\\C)CCC=C(C)C", "Activity": "inactive"},
      {"smiles": "CC(C)=CCC/C(C)=C/CC/C(C)=C/CSC(C)(C)C(=O)O", "Activity": "inactive"},
      {"smiles": "CC(C)=CCC/C(C)=C/CC/C(C)=C/CSCC(O)CO", "note": "(configuration not stated)", "Activity": "inactive"},
      {"smiles": "CC(=O)CSC/C=C(\\C)CC/C=C(\\C)CCC=C(C)C", "Activity": "inactive"},
      {"smiles": "COC(=O)CSCC/C=C(\\C)CC/C=C(\\C)CCC=C(C)C", "Activity": "inactive"},
      {"smiles": "CC(C)=CCC/C(C)=C/CC/C(C)=C/CSCC1OCCO1", "Activity": "inactive"},
      {"smiles": "COCCSC/C=C(\\C)CC/C=C(\\C)CCC=C(C)C", "Activity": "inactive"},
      {"smiles": "CC(C)=CCC/C(C)=C/CC/C(C)=C/CC/C(C)=C/CSCCO", "Activity": "inactive"},
      {"smiles": "CC(C)=CCC/C(C)=C/CC/C(C)=C/CSC(F)(F)CO", "Activity": "inactive"},
      {"smiles": "COC(=O)CSC/C=C(\\C)CC/C=C(\\C)CC/C=C(\\C)CCC=C(C)C", "Activity": "inactive"},
      {"smiles": "CC(C)=CCC/C(C)=C/CC/C(C)=C/CSCCCO", "Activity": "inactive"},
      {"smiles": "COC(=O)CSC/C=C(\\C)CCC=C(C)C", "Activity": "inactive"},
      {"smiles": "CC(=O)SC/C=C(\\C)CC/C=C(\\C)CCC=C(C)C", "Activity": "inactive"},
      {"smiles": "CCOP(=O)(CCCSC/C=C(\\C)CC/C=C(\\C)CCC=C(C)C)OCC", "Activity": "inactive"},
      {"smiles": "CC(C)=CCC/C(C)=C/CC/C(C)=C/CCSCCO", "Activity": "inactive"},
      {"smiles": "CCOC(=O)NCCSC/C=C(\\C)CC/C=C(\\C)CCC=C(C)C", "Activity": "inactive"},
      {"smiles": "CC(C)=CCC/C(C)=C/CC/C(C)=C/CSC(C)(C)CO", "Activity": "inactive"},
      {"smiles": "CCCSC/C=C(\\C)CC/C=C(\\C)CCC=C(C)C", "Activity": "inactive"},
      {"smiles": "CC(C)=CCC/C(C)=C/CC/C(C)=C/CSCCN", "Activity": "inactive"},
      {"smiles": "CC(C)=CCC/C(C)=C/CC/C(C)=C/CSCC(N)=O", "Activity": "inactive"},
      {"smiles": "CC(C)=CCC/C(C)=C/CC/C(C)=C/CSCCC(=O)NO", "Activity": "inactive"},
      {"smiles": "CC(C)=CCC/C(C)=C/CC/C(C)=C/CSCC(=O)O", "Activity": "inactive"},
      {"smiles": "COC(=O)CSC/C=C(\\C)CC/C=C(\\C)CCC=C(C)C", "Activity": "inactive"},
      {"smiles": "CC(C)=CCC/C(C)=C/CC/C(C)=C/CSCCN=[N+]=[N-]", "Activity": "inactive"},
      {"smiles": "CC(C)=CCC/C(C)=C/CSCCO", "Activity": "inactive"},
      {"smiles": "CC(C)=CCC/C(C)=C/CC/C(C)=C/CSCC=O", "Activity": "inactive"},
      {"smiles": "CC(C)=CCC/C(C)=C/CSCC(=O)O", "Activity": "inactive"},
      {"smiles": "COC(=O)C(F)(F)SC/C=C(\\C)CC/C=C(\\C)CCC=C(C)C", "Activity": "inactive"},
      {"smiles": "CC(C)=CCC/C(C)=C/CC/C(C)=C/CSC(C)C", "Activity": "inactive"},
      {"smiles": "CC(C)=CCC/C(C)=C/CC/C(C)=C/CSCCS", "Activity": "inactive"},
      {"smiles": "COC(=O)CCSC/C=C(\\C)CC/C=C(\\C)CCC=C(C)C", "Activity": "inactive"}
    ]},
    {"molecular_target": "T1, Protein-S-isoprenylcysteine O-methyltransferase", "assay": "Inhibition of isoprenylcysteine carboxyl methyltransferase in human Jurkat cells assessed as mislocalization of GFP-K-Ras at 10 uM after 24 hrs by fluorescence microscopic analysis", "assay_type": "cell-based", "values": [
      {"smiles": "CC(C)=CCC/C(C)=C/CC/C(C)=C/CSCCO", "inhibition": "Active"}
    ]},
    {"molecular_target": "T1, Protein-S-isoprenylcysteine O-methyltransferase", "assay": "Un-competitive inhibition of human isoprenylcysteine carboxyl methyltransferase using [14C]SAM and N-acetyl-S-farnesyl-L-cysteine as substrate by Lineweaver-Burk plot analysis", "units": {"Kiuc": "µM"}, "values": [
      {"smiles": "CC(C)=CCC/C(C)=C/CC/C(C)=C/CSCCO", "Kiuc": 0.43}
    ]},
    {"molecular_target": "T1, Protein-S-isoprenylcysteine O-methyltransferase", "assay": "Inhibition of human isoprenylcysteine carboxyl methyltransferase using [14C]SAM and N-acetyl-S-farnesyl-L-cysteine as substrate after 30 mins by vapor diffusion assay", "units": {"IC50": "nM"}, "values": [
      {"smiles": "CC(C)=CCC/C(C)=C/CC/C(C)=C/CSCCO", "IC50": 860}
    ]},
    {"molecular_target": "T1, Protein-S-isoprenylcysteine O-methyltransferase", "assay": "Competitive inhibition of human isoprenylcysteine carboxyl methyltransferase using [14C]SAM and N-acetyl-S-farnesyl-L-cysteine as substrate by Lineweaver-Burk plot analysis", "units": {"Kic": "µM"}, "values": [
      {"smiles": "CC(C)=CCC/C(C)=C/CC/C(C)=C/CSCCO", "Kic": 0.44}
    ]},
    {"molecular_target": "T1, Protein-S-isoprenylcysteine O-methyltransferase", "assay": "Inhibition of isoprenylcysteine carboxyl methyltransferase in human Jurkat cells assessed as mislocalization of GFP-K-Ras at 45 uM after 24 hrs by fluorescence microscopic analysis", "assay_type": "cell-based", "values": [
      {"smiles": "CCC(C)(C)C(=O)O[C@H]1C[C@@H](C)C=C2C=C[C@H](C)[C@H](CC[C@@H]3C[C@@H](O)CC(=O)O3)[C@H]21", "inhibition": "Active"}
    ]}
  ]
}
